Results from US7476650B2, “Enzyme inhibition” (Yale University, priority 1999, dated 2009).
Read-outs that look alike come from different tables or passages of the source. Where a SMILES comes first, the peptide text is derived from it. The star is where a group is joined. Cbz = O=C(OCc1ccccc1)*

Key:
[1] = test system: bovine aortic endothelial (BAE) cells; assay: BAE cell proliferation ([methyl-3H]-thymidine incorporation); assay type: cell-based
Method: BAE cells were cultured at 7% CO2 and were grown in DMEM supplemented with 10% FBS, 1% penicillin/streptomycin (GIBCO), and 1 mM sodium pyruvate.
Approximately 1000 BAE cells were plated into each well of a 96-well culture plate. After an overnight incubation, different concentrations of proteasome inhibitors were added and incubation was continued for another five days. […] Subsequently, 74 kBq of [methyl-^3H]-thymidine was added to each well of the plate and the plate was incubated for another additional 4 hours. Cells were harvested using a Skatron Cell Harvester and incorporated radioactivity was quantified using liquid scintillation. Proliferation of BAE cells was assayed in triplicate in the presence of different concentrations of peptide epoxides.
Perturbation of the proteasome activity can result in inhibition of cell growth, and can further lead to cell death at elevated concentration of the proteasome inhibitors. This provides an excellent cell-based assay to assess the importance of each catalytic activity of the 20S proteasome in degradation of proteins involved in cell growth. We measured inhibition of proliferation of bovine aortic endothelial (BAE) cells with our α′,β′-epoxyketone-based inhibitors with varying degree of specificity for the PGPH activity.

[2] = molecular target: T1, PGPH activity of purified bovine erythrocyte 20S proteasome (Bos taurus, UniProt Q3MHN0); assay: Enzyme kinetic assay, PGPH activity (Z-LLE-AMC); assay type: biochemical; conditions: for kobs/[I] for PGPH activity using Z-LLE-AMC: Examples 9 and 10; for kobs/[I] PGPH: Table 3; for selectivity for the PGPH activity: in words, data not shown for Glu compounds; for kassoc = kobs/[I] PGPH activity: Table 2, inhibitor concentration range in the line below
T1 construct: from tissue; host or cells: bovine erythrocytes (red blood cells)
Method: We investigated the potency of inhibitors of various length. Mono-, di-,tri- and tetraleucine α′,β′-epoxides were ranked by determination of the kobs/[I] values for inhibition of the chymotrypsin-like, trypsin-like, and PGPH activities of purified bovine erythrocyte 20S proteasome. Enzyme kinetic assays were performed as described in Example 2.
(§1) Purified bovine erythrocyte proteasome was enzymatically assayed using a variety of different substrates and inhibitors. In order to evaluate the rates of proteolytic inactivation by inhibitors, kassociation (kobs/[I]) values were determined using fluorogenic peptide substrates over a range of inhibitor concentrations.

[3] = molecular target: T2, chymotrypsin-like activity of purified bovine erythrocyte 20S proteasome (Bos taurus, UniProt Q32KL2); assay: Enzyme kinetic assay, chymotrypsin-like activity (Suc-LLVY-AMC); assay type: biochemical; conditions: for kobs/[I] for chymotryptic-like activity using Suc-LLVY-AMC: Examples 9 and 10, in M-1s-1; for kassoc = kobs/[I] (chymotrypsin-like activity inhibition): Table 5; for kobs/[I] Chymotrypsin-like: Table 3; for kassoc = kobs/[I] Chymotrypsin-like activity: Table 2, inhibitor concentration range in the line below
T2 construct: from tissue; host or cells: bovine erythrocytes (red blood cells)
Description: (§2) We investigated the potency of inhibitors of various length. Mono-, di-,tri- and tetraleucine α′,β′-epoxides were ranked by determination of the kobs/[I] values for inhibition of the chymotrypsin-like, trypsin-like, and PGPH activities of purified bovine erythrocyte 20S proteasome.
as §1

[4] = molecular target: T3, trypsin-like activity of purified bovine erythrocyte 20S proteasome (Bos taurus, UniProt Q2TBP0); assay: Enzyme kinetic assay, trypsin-like activity (Boc-LRR-AMC); assay type: biochemical; conditions: for kobs/[I] for tryptic-like activity using Boc-LRR-AMC: Examples 9 and 10; for inhibition of the trypsin-like activity of the proteasome: in words; for kassoc = kobs/[I] Trypsin-like activity: Table 2, inhibitor concentration range in the line below
T3 construct: from tissue; host or cells: bovine erythrocytes (red blood cells)
Description: as §2, §1

[5] = test system: ubiquitinated proteins in Hela cells; assay: α-ubiquitin immunoblot of treated Hela cells; assay type: cell-based; conditions: epoxomicin 10 μM, 2 hours
Method: (§3) The control experiment (Crtl) was carried out with vehicle only.

[6] = molecular target: T4, purified murine spleen proteasome (Mus musculus, UniProt O35955+P28063+P70195); assay: [3H]-epoxomicin binding to purified proteasome; conditions: compared with epoxomicin-biotin
T4 construct: from tissue; host or cells: murine spleen
T4 sequence (P28063 73-276): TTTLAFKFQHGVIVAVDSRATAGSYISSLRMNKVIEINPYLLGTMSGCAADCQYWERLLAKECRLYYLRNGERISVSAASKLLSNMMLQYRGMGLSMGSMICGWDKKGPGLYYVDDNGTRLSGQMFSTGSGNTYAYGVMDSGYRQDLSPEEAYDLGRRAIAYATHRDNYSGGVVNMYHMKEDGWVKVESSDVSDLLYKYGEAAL
T4 sequence (O35955 40-273): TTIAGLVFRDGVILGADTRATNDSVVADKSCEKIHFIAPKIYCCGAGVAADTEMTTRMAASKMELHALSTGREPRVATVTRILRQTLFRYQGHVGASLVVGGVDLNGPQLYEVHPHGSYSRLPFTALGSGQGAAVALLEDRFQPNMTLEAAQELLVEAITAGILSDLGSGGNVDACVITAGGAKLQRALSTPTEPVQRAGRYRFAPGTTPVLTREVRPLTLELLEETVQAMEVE
T4 sequence (P70195 44-277): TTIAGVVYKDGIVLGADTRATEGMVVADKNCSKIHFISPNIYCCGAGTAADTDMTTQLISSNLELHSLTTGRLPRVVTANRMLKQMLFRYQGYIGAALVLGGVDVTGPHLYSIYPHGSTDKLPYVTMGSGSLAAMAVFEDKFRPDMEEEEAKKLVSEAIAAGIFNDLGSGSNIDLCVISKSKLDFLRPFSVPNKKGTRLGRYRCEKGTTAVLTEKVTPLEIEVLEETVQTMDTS

cathepsin B = cathepsin B (Homo sapiens, UniProt P07858); assay: Cathepsin B inhibition assay
[7] = test system: p53 protein levels in HUVECs; assay: α-p53 immunoblot of treated HUVECs; assay type: cell-based; conditions: 5 μM
Method: The tumor suppressor p53 is a known target of the proteasome.
as §3

[8] = test system: mice, DNFB applied to the ear; assay: DNFB ear inflammation (irritant sensitivity response); assay type: in vivo; conditions: single dose one hour before DNFB, 24 hours
Method: Ear thickness was measured at 0 and 24 hours after DNFB application.

[9] = Table 6, PGPH-directed inhibitors

SMILES: CC(=O)N[C@@H](C)C(=O)N[C@@H](CC(C)C)C(=O)N[C@@H](CC(C)C)C(=O)N[C@@H](CC(C)C)C(=O)[C@@]1(C)CO1 [Ac-ALLL-epoxide]
- IC50 ([1]; Table 5, five days incubation): 0.083 µM
- kobs/[I] for PGPH activity using Z-LLE-AMC [2]: 220
- kobs/[I] for chymotryptic-like activity using Suc-LLVY-AMC [3]: 5,300
- kassoc = kobs/[I] (chymotrypsin-like activity inhibition) [3]: 5300 M⁻¹ s⁻¹
- kobs/[I] for tryptic-like activity using Boc-LRR-AMC [4]: 3.8 M⁻¹ s⁻¹

SMILES: CC(C)C[C@@H](C=O)NC(=O)[C@H](CC(C)C)NC(=O)[C@H](CC(C)C)NC(=O)OCc1ccccc1 [Z-LLL-H] (Cbz-Leu-Leu-Leu-aldehyde)
- accumulation of ubiquitinated proteins (anti-ubiquitin antibody) [5]: upper molecular weight bands were also observed

SMILES: CC(=O)N[C@@H](CC(C)C)C(=O)N[C@@H](CC(C)C)C(=O)N[C@@H](Cc1ccccc1)C(=O)N[C@@H](CC(C)C)C(=O)[C@@]1(C)CO1 [Ac-LLFL-epoxide]
- IC50 ([1]; Table 5, five days incubation): 0.007 µM
- kobs/[I] for PGPH activity using Z-LLE-AMC [2]: not measurable
- kobs/[I] for chymotryptic-like activity using Suc-LLVY-AMC [3]: 54,000
- kassoc = kobs/[I] (chymotrypsin-like activity inhibition) [3]: 54,000 M^−1 s^−1
- kobs/[I] for tryptic-like activity using Boc-LRR-AMC [4]: not measurable

SMILES: [3H]C([3H])([3H])C(=O)N(C)[C@H](C(=O)N[C@H](C(=O)N[C@H](C(=O)N[C@@H](CC(C)C)C(=O)[C@@]1(C)CO1)[C@@H](C)O)[C@@H](C)CC)[C@@H](C)CC [[^3H] epoxomicin]
- protein binding pattern [6]: same protein binding pattern observed with epoxomicin-biotin

SMILES: CC(C)CCCCC(=O)N1CCC[C@H]1C(=O)N[C@@H](Cc1ccccc1)C(=O)N[C@@H](CC(C)C)C(=O)[C@@]1(C)CO1 [Isooctanioc-PFL-Ex]
- IC50 [1, 9]: 0.6 µM
- kobs/[I] PGPH [2]: 194 ± 4 M⁻¹ s⁻¹
- selectivity for the PGPH activity [2]: no selectivity
- kobs/[I] Chymotrypsin-like [3]: 190 ± 60 M⁻¹ s⁻¹
- inhibition of the trypsin-like activity of the proteasome [4]: no inhibition

SMILES: CC(C)[C@H](O)[C@@]12NC(=O)[C@H](C)[C@@H]1OC2=O [clasto-lactacystin β lactone, clasto-lactacystin β-lactone, reference compound]
- kassoc = kobs/[I] PGPH activity [2]: 37 ± 4.7 M⁻¹ s⁻¹
- kassoc = kobs/[I] Chymotrypsin-like activity [3]: 8530 ± 280 M⁻¹ s⁻¹
- inhibition of cathepsin B enzymatic activity (cathepsin B; at 50 μM): significantly inhibited
- kassoc = kobs/[I] Trypsin-like activity [4]: 253 ± 41 M⁻¹ s⁻¹

SMILES: CC(C)C[C@H](NC(=O)[C@H](Cc1ccccc1)NC(=O)[C@@H]1CCCN1C(=O)c1ccc(N(C)C)cc1)C(=O)[C@@]1(C)CO1 [N-dimethylaminobenzoyl-PFL-EX]
- IC50 [1, 9]: 0.4 µM
- kobs/[I] PGPH [2]: 150 ± 40 M⁻¹ s⁻¹
- selectivity for the PGPH activity [2]: no selectivity
- kobs/[I] Chymotrypsin-like [3]: 220 ± 70 M⁻¹ s⁻¹
- inhibition of the trypsin-like activity of the proteasome [4]: no inhibition

SMILES: CC(=O)N[C@@H](CSC(=O)[C@]1([C@@H](O)C(C)C)NC(=O)[C@H](C)[C@@H]1O)C(=O)O [lactacystin]
- increase of p53 levels over untreated cells [7]: 10 fold

SMILES: CCCC[C@H](NC(C)=O)C(=O)N1CCC[C@H]1C(=O)N[C@@H](Cc1ccccc1)C(=O)N[C@@H](CC(C)C)C(=O)[C@@]1(C)CO1 [Ac-NorLPFL-Ex]
- IC50 [1, 9]: 53 µM
- selectivity: fold higher kobs/[I] for inhibition of the PGPH activity than the chymotrypsin-like activity ([2]; PGPH vs chymotrypsin-like): 60 fold
- kobs/[I] PGPH [2]: 115 ± 15 M⁻¹ s⁻¹
- kobs/[I] Chymotrypsin-like [3]: 1.9 ± 0.6 M⁻¹ s⁻¹
- inhibition of the trypsin-like activity of the proteasome [4]: no inhibition

SMILES: CC(=O)N[C@@H](CCc1ccccc1)C(=O)N[C@@H](CC(C)C)C(=O)N[C@@H](Cc1ccccc1)C(=O)N[C@@H](CC(C)C)C(=O)[C@@]1(C)CO1 [compound 16]
- inhibition of ear inflammation / ear swelling over vehicle-treated controls ([8]; high dose 2.0 mg/kg (3.6 μmol/kg)): 12 fold
- inhibition of ear inflammation / ear swelling over vehicle-treated controls ([8]; low dose 0.32 mg/kg (0.58 μmol/kg)): reducing ear swelling by the same amount as epoxomicin
- IC50 ([1]; Bos taurus, 120 h, Table 5, five days incubation): 0.02 µM
- kinact/KI ([2]; pH 8, Table 4, inhibitor concentration range in parentheses, read-out: kassoc = kobs/[I] PGPH activity): 21 M⁻¹ s⁻¹
- kinact/KI ([3]; pH 8, read-out: kobs/[I] for chymotryptic-like activity using Suc-LLVY-AMC): 183000 M⁻¹ s⁻¹
- kinact/KI ([3]; pH 8, Table 4, inhibitor concentration range in parentheses, read-out: kassoc = kobs/[I] Chymotrypsin-like activity): 166000 M⁻¹ s⁻¹
- kinact/KI ([4]; pH 8, Table 4, inhibitor concentration range in parentheses, read-out: kassoc = kobs/[I] Trypsin-like activity): 7.1 M⁻¹ s⁻¹

SMILES: CC(=O)N[C@@H](CC(C)C)C(=O)N[C@@H](CC(C)C)C(=O)N[C@@H](C)C(=O)N[C@@H](CC(C)C)C(=O)[C@@]1(C)CO1 [Ac-LLAL-epoxide]
- IC50 ([1]; Table 5, five days incubation): 0.034 µM
- kobs/[I] for PGPH activity using Z-LLE-AMC [2]: 20
- kobs/[I] for chymotryptic-like activity using Suc-LLVY-AMC [3]: 16,000
- kassoc = kobs/[I] (chymotrypsin-like activity inhibition) [3]: 16,000 M^−1 s^−1
- kobs/[I] for tryptic-like activity using Boc-LRR-AMC [4]: 4.1 M⁻¹ s⁻¹

SMILES: CC(=O)N[C@@H](CC(C)C)C(=O)N[C@@H](C)C(=O)N[C@@H](CC(C)C)C(=O)N[C@@H](CC(C)C)C(=O)[C@@]1(C)CO1 [Ac-LALL-epoxide]
- IC50 ([1]; Table 5, five days incubation): 0.7 µM
- kobs/[I] for PGPH activity using Z-LLE-AMC [2]: 130
- kobs/[I] for chymotryptic-like activity using Suc-LLVY-AMC [3]: 1,300
- kassoc = kobs/[I] (chymotrypsin-like activity inhibition) [3]: 1300 M⁻¹ s⁻¹
- kobs/[I] for tryptic-like activity using Boc-LRR-AMC [4]: 2 M⁻¹ s⁻¹

SMILES: CC(C)C[C@H](NC(=O)[C@H](Cc1ccccc1)NC(=O)[C@@H]1CCCN1C(=O)c1cnccn1)C(=O)C1(C)CO1 (stereo partly drawn) [Pyrazinecarbonyl-PFL-Ex]
- IC50 [1, 9]: 0.4 µM
- kobs/[I] PGPH [2]: 23 ± 3 M⁻¹ s⁻¹
- kobs/[I] Chymotrypsin-like [3]: 520 ± 40 M⁻¹ s⁻¹
- kobs/[I] Trypsin-like ([4]; Table 3): 3.7 ± 1.1 M⁻¹ s⁻¹

SMILES: CC(C)C[C@@H](/C=C/S(C)(=O)=O)NC(=O)[C@H](CC(C)C)NC(=O)[C@H](CC(C)C)NC(=O)Cc1cc(I)c(O)c([N+](=O)[O-])c1 [NLVS, reference compound]
- kassoc = kobs/[I] PGPH activity [2]: 6.4 ± 2.3 M⁻¹ s⁻¹
- kassoc = kobs/[I] Chymotrypsin-like activity [3]: 6790 ± 919 M⁻¹ s⁻¹
- inhibition of cathepsin B enzymatic activity (cathepsin B; at 10 μM): significantly inhibited
- kassoc = kobs/[I] Trypsin-like activity [4]: 5.3 ± 2.8 M⁻¹ s⁻¹
